Test results published in PubChem BioAssay (NCI).
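Following 48 hours of exposure in 96-well plates, responses at five concentrations were used to interpolate endpoints linearly. The concentration for full growth arrest is given as TGI.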

Experiments:
Assay in all cases: growth of human tumour cells (NCI), 48 h
RXF 393 renal = system: RXF 393 renal
M14 melanoma = system: M14 melanoma
HOP-62 NSCLC = system: HOP-62 NSCLC
LXFL 529 NSCLC = system: LXFL 529 NSCLC
HCT-15 colon = system: HCT-15 colon
SK-MEL-5 melanoma = system: SK-MEL-5 melanoma
NCI-H226 lung = system: NCI-H226 lung
HL-60(TB) leukemia = system: HL-60(TB) leukemia
RPMI-8226 leukemia = system: RPMI-8226 leukemia
SW-620 colon = system: SW-620 colon
SNB-78 CNS = system: SNB-78 CNS
NCI-H23 lung = system: NCI-H23 lung
KM20L2 colon = system: KM20L2 colon
LOX IMVI melanoma = system: LOX IMVI melanoma
OVCAR-3 ovarian = system: OVCAR-3 ovarian
UACC-257 melanoma = system: UACC-257 melanoma
MALME-3M melanoma = system: MALME-3M melanoma
CCRF-CEM leukemia = system: CCRF-CEM leukemia
SK-OV-3 ovarian = system: SK-OV-3 ovarian
ACHN renal = system: ACHN renal
OVCAR-8 ovarian = system: OVCAR-8 ovarian
OVCAR-5 ovarian = system: OVCAR-5 ovarian
M19-MEL melanoma = system: M19-MEL melanoma
KM12 colon = system: KM12 colon
CAKI-1 renal = system: CAKI-1 renal
NCI-H460 lung = system: NCI-H460 lung
HCT-116 colon = system: HCT-116 colon
SNB-75 CNS = system: SNB-75 CNS
XF 498 CNS = system: XF 498 CNS
COLO 205 colon = system: COLO 205 colon
U251 CNS = system: U251 CNS
SNB-19 CNS = system: SNB-19 CNS
SF-295 CNS = system: SF-295 CNS
IGROV1 ovarian = system: IGROV1 ovarian
A549 NSCLC = system: A549 NSCLC
A498 renal = system: A498 renal
EKVX NSCLC = system: EKVX NSCLC
SN12C renal = system: SN12C renal
786-0 renal = system: 786-0 renal
K-562 leukemia = system: K-562 leukemia
SK-MEL-2 melanoma = system: SK-MEL-2 melanoma
MOLT-4 leukemia = system: MOLT-4 leukemia
DLD-1 colon = system: DLD-1 colon
HOP-18 NSCLC = system: HOP-18 NSCLC
HT29 colon = system: HT29 colon
HOP-92 NSCLC = system: HOP-92 NSCLC
DMS 114 small cell lung = system: DMS 114 small cell lung
OVCAR-4 ovarian = system: OVCAR-4 ovarian
UACC-62 melanoma = system: UACC-62 melanoma
SF-268 CNS = system: SF-268 CNS
SK-MEL-28 melanoma = system: SK-MEL-28 melanoma
DMS 273 small cell lung = system: DMS 273 small cell lung
HCC-2998 colon = system: HCC-2998 colon
UO-31 renal = system: UO-31 renal
TK-10 renal = system: TK-10 renal
NCI-H522 lung = system: NCI-H522 lung
SR leukemia = system: SR leukemia
SF-539 CNS = system: SF-539 CNS

SMILES: c1ccc2c3c([nH]c2c1)C1(CCCCC1)c1c([nH]c2ccccc12)C31CCCCC1
- TGI (RXF 393 renal): 89.4 µM
- TGI (M14 melanoma): > 100 µM
- TGI (HOP-62 NSCLC): 54.8 µM
- TGI (LXFL 529 NSCLC): > 100 µM
- TGI (HCT-15 colon): > 100 µM
- TGI (SK-MEL-5 melanoma): 85.2 µM
- TGI (NCI-H226 lung): 97.1 µM
- TGI (HL-60(TB) leukemia): > 100 µM
- TGI (RPMI-8226 leukemia): > 100 µM
- TGI (SW-620 colon): > 100 µM
- TGI (SNB-78 CNS): 45.4 µM
- TGI (NCI-H23 lung): > 100 µM
- TGI (KM20L2 colon): > 100 µM
- TGI (LOX IMVI melanoma): > 100 µM
- TGI (OVCAR-3 ovarian): > 100 µM
- TGI (UACC-257 melanoma): > 100 µM
- TGI (MALME-3M melanoma): 80.1 µM
- TGI (CCRF-CEM leukemia): > 100 µM
- TGI (SK-OV-3 ovarian): 49.6 µM
- TGI (ACHN renal): 59 µM
- TGI (OVCAR-8 ovarian): 50.4 µM
- TGI (OVCAR-5 ovarian): > 100 µM
- TGI (M19-MEL melanoma): > 100 µM
- TGI (KM12 colon): > 100 µM
- TGI (CAKI-1 renal): > 100 µM
- TGI (NCI-H460 lung): > 100 µM
- TGI (HCT-116 colon): 37.1 µM
- TGI (SNB-75 CNS): 36.5 µM
- TGI (XF 498 CNS): > 100 µM
- TGI (COLO 205 colon): > 100 µM
- TGI (U251 CNS): 97.6 µM
- TGI (SNB-19 CNS): > 100 µM
- TGI (SF-295 CNS): 56.8 µM
- TGI (IGROV1 ovarian): > 100 µM
- TGI (A549 NSCLC): > 100 µM
- TGI (A498 renal): 54 µM
- TGI (EKVX NSCLC): 61.7 µM
- TGI (SN12C renal): > 100 µM
- TGI (786-0 renal): 32.2 µM
- TGI (K-562 leukemia): > 100 µM
- TGI (SK-MEL-2 melanoma): 48.1 µM
- TGI (MOLT-4 leukemia): > 100 µM
- TGI (DLD-1 colon): > 100 µM
- TGI (HOP-18 NSCLC): 68.2 µM
- TGI (HT29 colon): > 100 µM
- TGI (HOP-92 NSCLC): 46.6 µM
- TGI (DMS 114 small cell lung): > 100 µM
- TGI (OVCAR-4 ovarian): 26 µM
- TGI (UACC-62 melanoma): 64.5 µM
- TGI (SF-268 CNS): 95.4 µM
- TGI (SK-MEL-28 melanoma): > 100 µM
- TGI (DMS 273 small cell lung): 59 µM
- TGI (HCC-2998 colon): 85.6 µM
- TGI (UO-31 renal): > 100 µM
- TGI (TK-10 renal): 88.7 µM
- TGI (NCI-H522 lung): > 100 µM
- TGI (SR leukemia): 58.9 µM

SMILES: C/C(=N\O)C(CN1CCCCC1)C(c1ccccc1)c1c(O)c2ccccc2oc1=O (stereo unspecified)
- TGI (RXF 393 renal): > 100 µM
- TGI (M14 melanoma): > 100 µM
- TGI (HOP-62 NSCLC): > 100 µM
- TGI (LXFL 529 NSCLC): > 100 µM
- TGI (SK-MEL-5 melanoma): > 100 µM
- TGI (NCI-H226 lung): > 100 µM
- TGI (HL-60(TB) leukemia): > 10 µM
- TGI (RPMI-8226 leukemia): > 100 µM
- TGI (SW-620 colon): > 100 µM
- TGI (NCI-H23 lung): > 100 µM
- TGI (KM20L2 colon): > 100 µM
- TGI (LOX IMVI melanoma): > 100 µM
- TGI (OVCAR-3 ovarian): > 100 µM
- TGI (UACC-257 melanoma): > 100 µM
- TGI (MALME-3M melanoma): > 100 µM
- TGI (CCRF-CEM leukemia): > 10 µM
- TGI (SK-OV-3 ovarian): > 100 µM
- TGI (ACHN renal): > 100 µM
- TGI (OVCAR-8 ovarian): > 100 µM
- TGI (SF-539 CNS): > 100 µM
- TGI (OVCAR-5 ovarian): > 100 µM
- TGI (M19-MEL melanoma): > 100 µM
- TGI (CAKI-1 renal): > 100 µM
- TGI (HCT-116 colon): > 100 µM
- TGI (SNB-75 CNS): > 100 µM
- TGI (XF 498 CNS): > 100 µM
- TGI (COLO 205 colon): > 100 µM
- TGI (SNB-19 CNS): > 100 µM
- TGI (SF-295 CNS): > 100 µM
- TGI (IGROV1 ovarian): > 100 µM
- TGI (A549 NSCLC): > 100 µM
- TGI (A498 renal): > 100 µM
- TGI (EKVX NSCLC): > 100 µM
- TGI (SN12C renal): > 100 µM
- TGI (786-0 renal): > 100 µM
- TGI (K-562 leukemia): > 10 µM
- TGI (SK-MEL-2 melanoma): > 100 µM
- TGI (DLD-1 colon): > 100 µM
- TGI (HT29 colon): > 100 µM
- TGI (HOP-92 NSCLC): > 100 µM
- TGI (DMS 114 small cell lung): > 100 µM
- TGI (OVCAR-4 ovarian): > 100 µM
- TGI (UACC-62 melanoma): > 100 µM
- TGI (SF-268 CNS): > 100 µM
- TGI (SK-MEL-28 melanoma): > 100 µM
- TGI (HCC-2998 colon): > 100 µM
- TGI (TK-10 renal): > 100 µM
- TGI (NCI-H522 lung): > 100 µM

SMILES: O=c1n(CCCCn2c(=O)n(CC3CS3)c3ccccc32)c2ccccc2n1CC1CS1 (stereo unspecified)
- TGI (M14 melanoma): 23.2 µM
- TGI (HOP-62 NSCLC): 43.9 µM
- TGI (LXFL 529 NSCLC): 33.1 µM
- TGI (HCT-15 colon): 33.2 µM
- TGI (HL-60(TB) leukemia): 6.34 µM
- TGI (RPMI-8226 leukemia): 30.3 µM
- TGI (SW-620 colon): 39.8 µM
- TGI (LOX IMVI melanoma): 14.4 µM
- TGI (OVCAR-3 ovarian): 29.4 µM
- TGI (MALME-3M melanoma): 22.8 µM
- TGI (CCRF-CEM leukemia): 81.4 µM
- TGI (SK-OV-3 ovarian): > 100 µM
- TGI (ACHN renal): 77.6 µM
- TGI (M19-MEL melanoma): 45.8 µM
- TGI (KM12 colon): 24.2 µM
- TGI (CAKI-1 renal): 35.5 µM
- TGI (HCT-116 colon): 39.7 µM
- TGI (SNB-75 CNS): 61.4 µM
- TGI (XF 498 CNS): 20.6 µM
- TGI (COLO 205 colon): 35.6 µM
- TGI (IGROV1 ovarian): 32 µM
- TGI (EKVX NSCLC): 76.2 µM
- TGI (SN12C renal): 36.5 µM
- TGI (K-562 leukemia): 37.5 µM
- TGI (SK-MEL-2 melanoma): 29 µM
- TGI (MOLT-4 leukemia): 5.82 µM
- TGI (HOP-92 NSCLC): 86.5 µM
- TGI (OVCAR-4 ovarian): 34 µM
- TGI (SF-268 CNS): > 100 µM
- TGI (DMS 273 small cell lung): 42.7 µM
- TGI (HCC-2998 colon): 35.9 µM
- TGI (NCI-H522 lung): 31.6 µM
- TGI (SR leukemia): 21.5 µM

SMILES: CCN(CC)c1cccc2c1C1(O)CCC3(CC21)OCCCCO3 (stereo unspecified)
- TGI (RXF 393 renal): 53.6 µM
- TGI (M14 melanoma): > 100 µM
- TGI (HOP-62 NSCLC): > 100 µM
- TGI (LXFL 529 NSCLC): > 100 µM
- TGI (HCT-15 colon): > 100 µM
- TGI (SK-MEL-5 melanoma): > 100 µM
- TGI (NCI-H226 lung): > 100 µM
- TGI (HL-60(TB) leukemia): > 100 µM
- TGI (RPMI-8226 leukemia): > 100 µM
- TGI (SW-620 colon): > 100 µM
- TGI (SNB-78 CNS): > 100 µM
- TGI (NCI-H23 lung): > 100 µM
- TGI (KM20L2 colon): > 100 µM
- TGI (LOX IMVI melanoma): > 100 µM
- TGI (OVCAR-3 ovarian): > 100 µM
- TGI (UACC-257 melanoma): > 100 µM
- TGI (MALME-3M melanoma): > 100 µM
- TGI (CCRF-CEM leukemia): > 100 µM
- TGI (SK-OV-3 ovarian): > 100 µM
- TGI (ACHN renal): > 100 µM
- TGI (OVCAR-8 ovarian): > 100 µM
- TGI (SF-539 CNS): > 100 µM
- TGI (OVCAR-5 ovarian): > 100 µM
- TGI (M19-MEL melanoma): > 100 µM
- TGI (KM12 colon): > 100 µM
- TGI (CAKI-1 renal): > 100 µM
- TGI (NCI-H460 lung): > 100 µM
- TGI (HCT-116 colon): > 100 µM
- TGI (SNB-75 CNS): > 100 µM
- TGI (COLO 205 colon): > 100 µM
- TGI (U251 CNS): > 100 µM
- TGI (SNB-19 CNS): 41 µM
- TGI (SF-295 CNS): > 100 µM
- TGI (IGROV1 ovarian): > 100 µM
- TGI (A549 NSCLC): > 100 µM
- TGI (A498 renal): > 100 µM
- TGI (SN12C renal): > 100 µM
- TGI (786-0 renal): > 100 µM
- TGI (K-562 leukemia): > 100 µM
- TGI (SK-MEL-2 melanoma): > 100 µM
- TGI (MOLT-4 leukemia): > 100 µM
- TGI (DLD-1 colon): > 100 µM
- TGI (HOP-18 NSCLC): > 100 µM
- TGI (HT29 colon): > 100 µM
- TGI (DMS 114 small cell lung): > 100 µM
- TGI (OVCAR-4 ovarian): > 100 µM
- TGI (SF-268 CNS): > 100 µM
- TGI (SK-MEL-28 melanoma): > 100 µM
- TGI (DMS 273 small cell lung): > 100 µM
- TGI (HCC-2998 colon): > 100 µM
- TGI (UO-31 renal): > 100 µM
- TGI (TK-10 renal): > 100 µM
- TGI (NCI-H522 lung): > 100 µM
